The results in this text go back to ChEMBL document CHEMBL4765493, “Berberine Directly Targets the NEK7 Protein to Block the NEK7-NLRP3 Interaction and Exert Anti-inflammatory Activity” (J Med Chem, 2021).

Assay [1] is described as follows: Inhibition of LPS + nigericin-induced IL-1beta secretion in PMA-differentiated human THP-1 cells at 20 uM incubated for 24 hrs by ELISA. Format: functional. A general note: An ELISA detects its analyte on a solid surface through an enzyme-linked reagent.
A further assay concerns HEK293. In words: Inhibition of NEK7-NLRP3 interaction (unknown origin) expressed in HEK293 cells at 10 uM incubated for 24 hrs by Co-IP assay. In kind it is cell-based. To be noted: Homo sapiens.
Assay [2] deals with T1, Serine/threonine-protein kinase Nek7 (Homo sapiens, UniProt Q8TDX7). Put plainly: Binding affinity to NEK7 in PMA-differentiated human THP-1 cells incubated for 2 hrs by immunoblot analysis. Format: cell-based.
The target of assay [3] is T1, Serine/threonine-protein kinase Nek7. Put plainly: Binding affinity to NEK7 in PMA-differentiated human THP-1 cells incubated for 2 hrs by SDS-PAGE and LC-MS/MS analysis. Format: cell-based.
The target is the same in assay [4]. Put plainly: Binding affinity to human recombinant NEK7 incubated for 2 hrs in presence of BBR by pull down assay.
For assay [5], the target named is T2, Uridine-cytidine kinase 2 (Homo sapiens) (UniProt Q9BZX2).
T2 sequence (whole entry): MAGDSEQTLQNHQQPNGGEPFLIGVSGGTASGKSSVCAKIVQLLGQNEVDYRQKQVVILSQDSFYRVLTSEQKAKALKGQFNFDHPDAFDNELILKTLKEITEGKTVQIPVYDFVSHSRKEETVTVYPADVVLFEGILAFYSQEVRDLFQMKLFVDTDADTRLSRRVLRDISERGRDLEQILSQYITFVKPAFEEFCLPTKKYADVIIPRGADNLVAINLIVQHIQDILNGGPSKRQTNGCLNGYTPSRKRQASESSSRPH
Put plainly: Binding affinity to UCK2 in PMA-differentiated human THP-1 cells incubated for 2 hrs by SDS-PAGE and LC-MS/MS analysis. In kind it is cell-based.

For assay [6], the target named is T1, Serine/threonine-protein kinase Nek7. Put plainly: Binding affinity to human recombinant NEK7 incubated for 2 hrs by pull down assay. The settings on record: THP-1.
Assay [7] has the same target. In words: Binding affinity to human recombinant NEK7 incubated for 2 hrs by pull down assay relative to control. To be noted: THP-1.
Assay [8] has as its target DIMT1 dimethyladenosine transferase 1 (Homo sapiens) (UniProt Q9UNQ2). Put plainly: Binding affinity to DIM1 in PMA-differentiated human THP-1 cells incubated for 2 hrs by SDS-PAGE and LC-MS/MS analysis.
The target of assay [9] is Nicotinamide/nicotinic acid mononucleotide adenylyltransferase 1 (Homo sapiens) (UniProt Q9HAN9). In words: Binding affinity to NMNAT1 in PMA-differentiated human THP-1 cells incubated for 2 hrs by SDS-PAGE and LC-MS/MS analysis. In kind it is cell-based.
The target in assay [10] is 28S rRNA (cytosine-C(5))-methyltransferase (Homo sapiens) (UniProt Q96P11). In words: Binding affinity to NSUN5 in PMA-differentiated human THP-1 cells incubated for 2 hrs by SDS-PAGE and LC-MS/MS analysis. Format: cell-based.
In assay [11] the target is T3, Serine/threonine-protein phosphatase PGAM5, mitochondrial (Homo sapiens) (UniProt Q96HS1).
T3 sequence (whole entry): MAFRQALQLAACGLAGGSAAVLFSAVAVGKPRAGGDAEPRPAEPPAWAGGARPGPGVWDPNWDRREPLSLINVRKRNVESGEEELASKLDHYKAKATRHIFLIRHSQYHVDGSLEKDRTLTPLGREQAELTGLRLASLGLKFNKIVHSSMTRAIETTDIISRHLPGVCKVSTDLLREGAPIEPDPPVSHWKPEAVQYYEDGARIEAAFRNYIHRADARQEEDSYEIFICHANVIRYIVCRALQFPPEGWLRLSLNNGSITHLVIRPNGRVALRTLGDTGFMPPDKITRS
Put plainly: Binding affinity to […] in PMA-differentiated human THP-1 cells incubated for 2 hrs by SDS-PAGE and LC-MS/MS analysis. Format: cell-based.

Active and inactive are the calls of the source. The calls are words filed in the database; no cut-off is given here.

T1 sequence (Q8TDX7 whole entry, looked up): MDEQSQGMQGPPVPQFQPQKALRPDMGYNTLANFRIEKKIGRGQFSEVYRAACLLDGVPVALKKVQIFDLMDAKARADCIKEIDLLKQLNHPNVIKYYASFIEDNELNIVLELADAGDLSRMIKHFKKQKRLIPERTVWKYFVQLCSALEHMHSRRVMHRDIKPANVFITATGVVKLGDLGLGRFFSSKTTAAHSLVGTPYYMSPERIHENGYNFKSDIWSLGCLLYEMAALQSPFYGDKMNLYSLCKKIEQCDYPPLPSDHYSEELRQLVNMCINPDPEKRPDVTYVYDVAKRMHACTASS
Chain of 28S rRNA (cytosine-C(5))-methyltransferase (Homo sapiens) (Q96P11 whole entry): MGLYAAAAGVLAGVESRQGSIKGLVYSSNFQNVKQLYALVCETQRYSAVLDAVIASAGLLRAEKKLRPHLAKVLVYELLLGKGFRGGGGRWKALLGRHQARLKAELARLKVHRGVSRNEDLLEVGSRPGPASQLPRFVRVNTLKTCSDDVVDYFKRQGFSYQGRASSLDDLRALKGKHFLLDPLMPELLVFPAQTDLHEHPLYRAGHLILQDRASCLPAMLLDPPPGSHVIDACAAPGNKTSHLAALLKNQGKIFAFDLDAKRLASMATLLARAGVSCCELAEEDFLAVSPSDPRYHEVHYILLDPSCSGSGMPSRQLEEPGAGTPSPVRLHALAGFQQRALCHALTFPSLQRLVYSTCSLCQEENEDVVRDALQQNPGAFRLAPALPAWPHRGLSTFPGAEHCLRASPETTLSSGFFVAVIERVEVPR
Chain of Nicotinamide/nicotinic acid mononucleotide adenylyltransferase 1 (Homo sapiens) (Q9HAN9 whole entry): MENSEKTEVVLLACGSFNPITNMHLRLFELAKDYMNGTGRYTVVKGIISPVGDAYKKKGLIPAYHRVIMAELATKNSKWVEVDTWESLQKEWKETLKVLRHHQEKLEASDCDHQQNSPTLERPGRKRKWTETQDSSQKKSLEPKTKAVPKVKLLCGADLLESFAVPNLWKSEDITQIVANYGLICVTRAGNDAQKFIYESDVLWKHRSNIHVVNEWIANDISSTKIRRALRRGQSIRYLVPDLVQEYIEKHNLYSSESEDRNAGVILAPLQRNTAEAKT
Chain of DIMT1 dimethyladenosine transferase 1 (Homo sapiens) (Q9UNQ2 whole entry, looked up): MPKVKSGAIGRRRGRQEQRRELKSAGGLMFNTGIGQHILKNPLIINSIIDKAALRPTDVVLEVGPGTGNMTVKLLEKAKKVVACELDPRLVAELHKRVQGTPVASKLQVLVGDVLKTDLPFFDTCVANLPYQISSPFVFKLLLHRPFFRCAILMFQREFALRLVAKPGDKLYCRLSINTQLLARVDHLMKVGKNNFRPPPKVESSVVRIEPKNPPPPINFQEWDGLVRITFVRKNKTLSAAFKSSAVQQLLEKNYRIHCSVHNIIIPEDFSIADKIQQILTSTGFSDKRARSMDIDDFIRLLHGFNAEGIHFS

Take `COc1cc2c(cc1OC)-c1cc3ccc(OC)c(OCCCNC(=O)CCCC[C@@H]4SC[C@@H]5NC(=O)N[C@@H]54)c3c[n+]1CC2`: in assay [1], the inhibition at 20 µM amounted to 80%. With `COc1cc2c(cc1OC)-c1cc3ccc(OC)c(OC)c3c[n+]1CC2`, the inhibition entry in the assay with HEK293 is “inactive”. For the compound `COc1cc2c(cc1OC)-c1cc3ccc(OC)c(OCCCCCNC(=O)CCCC[C@@H]4SC[C@@H]5NC(=O)N[C@@H]54)c3c[n+]1CC2`, the inhibition at 20 µM in assay [1] was found to be 77%. For the compound `COc1cc2c(cc1OCCCNC(=O)CCCC[C@@H]1SC[C@@H]3NC(=O)N[C@@H]31)CC[n+]1cc3c(OC)c(OC)ccc3cc1-2`, in assay [1], the inhibition at 20 µM was -49%.

Regarding `COc1ccc2cc3[n+](cc2c1OCCCNC(=O)CCCC[C@@H]1SC[C@@H]2NC(=O)N[C@@H]21)CCc1cc2c(cc1-3)OCO2`, the inhibition at 20 µM in assay [1] was -92%. On to `COc1ccc2cc3[n+](cc2c1OCCCCCNC(=O)CCCC[C@@H]1SC[C@@H]2NC(=O)N[C@@H]21)CCc1cc2c(cc1-3)OCO2`, for which the inhibition at 20 µM in assay [1] is -2%. On the same count and under the same terms, the same measure for `COc1cc2c(cc1OCCOCCNC(=O)CCCC[C@@H]1SC[C@@H]3NC(=O)N[C@@H]31)CC[n+]1cc3c(OC)c(OC)ccc3cc1-2`: 75%; for `COc1ccc2cc3[n+](cc2c1OCCOCCOCCNC(=O)CCCC[C@@H]1SC[C@@H]2NC(=O)N[C@@H]21)CCc1cc2c(cc1-3)OCO2`: 16%. For the compound `C#CCOCCOc1cc(C2(C(F)(F)F)N=N2)ccc1C(=O)NCCOCCOCCOc1ccc2cc3[n+](cc2c1OC)CCc1cc2c(cc1-3)OCO2`, the inhibition at 20 µM in assay [1] was found to be 80%.

Regarding `COc1cc2c(cc1OC)-c1cc3ccc(OC)c(OCCOCCNC(=O)CCCC[C@@H]4SC[C@@H]5NC(=O)N[C@@H]54)c3c[n+]1CC2`, the inhibition at 20 µM in assay [1] was 65%. Consider `COc1cc2c(cc1OCCOCCOCCNC(=O)CCCC[C@@H]1SC[C@@H]3NC(=O)N[C@@H]31)CC[n+]1cc3c(OC)c(OC)ccc3cc1-2`, for which the inhibition at 20 µM in assay [1] was -79%. On to `COc1c(OCCOCCNC(=O)CCCC[C@@H]2SC[C@@H]3NC(=O)N[C@@H]32)ccc2cc3[n+](cc12)CCc1cc2c(cc1-3)OCO2`, for which the inhibition at 20 µM in assay [1] came out at 26%. Regarding `COc1ccc2cc3[n+](cc2c1OCCOCCNC(=O)CCCC[C@@H]1SC[C@@H]2NC(=O)N[C@@H]21)CCc1cc2c(cc1-3)OCO2`, the inhibition at 20 µM in assay [1] stood at 10%. Same read-out and setting: the same measure for `COc1c(OCCCCCNC(=O)CCCC[C@@H]2SC[C@@H]3NC(=O)N[C@@H]32)ccc2cc3[n+](cc12)CCc1cc2c(cc1-3)OCO2`: 73%. Still for that read-out and setting: the same measure for `COc1c(OCCCNC(=O)CCCC[C@@H]2SC[C@@H]3NC(=O)N[C@@H]32)ccc2cc3[n+](cc12)CCc1cc2c(cc1-3)OCO2`: 38%; for `COc1cc2c(cc1OCCCCCNC(=O)CCCC[C@@H]1SC[C@@H]3NC(=O)N[C@@H]31)CC[n+]1cc3c(OC)c(OC)ccc3cc1-2`: 70%. With `COc1c(OCCOCCOCCNC(=O)CCCC[C@@H]2SC[C@@H]3NC(=O)N[C@@H]32)ccc2cc3[n+](cc12)CCc1cc2c(cc1-3)OCO2`, the result in assay [2], in assay [3], in assay [5], in [6], in assay [8] and in assay [9] was Active. The outcome in assay [10] and in assay [11] was Active. In [1], the inhibition at 20 µM is 83%. The outcome in assay [4] was inactive. In [7], the Activity entry is “Dose-dependent effect”. Turning to `COc1cc2c(cc1OC)-c1cc3ccc(OC)c(OCCOCCOCCNC(=O)CCCC[C@@H]4SC[C@@H]5NC(=O)N[C@@H]54)c3c[n+]1CC2`, the inhibition at 20 µM in [1] was -78%. Further, the result in [3], in [5], in [8], in assay [9], in assay [10] and in assay [11] was inactive.

In general, inhibition refers to the drop in the measured response relative to a control, in per cent.
